2 compounds from US9303017B2, “2,5-disubstituted-pyridyl nicotinic ligands, and methods of use thereof” (Georgetown University, priority 2011, dated 2016) can be followed below.

For experiment [1], the target named is α2β4 nAChR (Rattus norvegicus (Rat), UniProt P12389+P12392). Briefly: [3H]-epibatidine competition binding, α2β4. The conditions noted are these: Table 1; mean of 3 to 5 measurements. The protocol: (§1) In Vitro Binding Affinities for nAChR Subtypes. […] To determine selectivities of these compounds in binding assays among the three predominant nAChR subtypes, α3β4, α4β2 and α7, the ratios of Ki values (α3β4/α4β2 and α7/α4β2) were determined.
(§2) Cell Lines and Cell Culture. The cell lines expressing defined rat nAChR subtypes were established previously by stably transfecting HEK 293 cells with rat nAChR subunit genes. The cell line expressing human α4β2 nAChRs, YXα4β2H1, was established recently. These cell lines were maintained in minimum essential medium (MEM) supplemented with 10% fetal bovine serum, 100 units/mL penicillin G, […] and selective antibiotics at 37° C. with 5% CO2 in a humidified incubator. Fetal bovine serum was provided by Gemini Bio-Products (Woodland, Calif.). […]
(§3) Briefly, cultured cells at >80% confluence were removed from their flasks (80 cm^2) with a disposable cell scraper and placed in 10 mL of 50 mM Tris.HCl buffer (pH 7.4, 4° C.). […] The filter-retained radioactivity was measured by liquid scintillation counting. […] Data from competition binding assays were analyzed using Prism 5 (GraphPad Software, San Diego, Calif.).
(§4) Pharmacological Properties. We measured the in vitro binding affinities of the ligands for defined receptor subtypes (α2β2, α2β4, α3β2, α3β4, α4β2, α4β4, α6β2, α6β4, and α7) expressed in stably transfected cell lines. […]

Experiment [2] deals with α3β2 nAChR (Rattus norvegicus (Rat), UniProt P04757+P12390). Briefly: [3H]-epibatidine competition binding, α3β2. The conditions noted are these: Table 1; mean of 3 to 5 measurements. On the procedure: as §1, §2, §3, §4
Experiment [3] addresses α4β4 nAChR (Rattus norvegicus (Rat), UniProt P09483+P12392). Put plainly: [3H]-epibatidine competition binding, α4β4. The conditions noted are these: Table 1; mean of 3 to 5 measurements. On the procedure:
as §1, §2, §3, §4

Experiment [4] has as its target α3β4 nAChR (Rattus norvegicus (Rat), UniProt P04757+P12392). Put plainly: [3H]-epibatidine competition binding, α3β4. The protocol: as §1
(§5) Cell Lines and Cell Culture. The cell lines expressing defined rat nAChR subtypes were established previously by stably transfecting HEK 293 cells with rat nAChR subunit genes. The cell line expressing human α4β2 nAChRs, YXα4β2H1, was established recently. These cell lines were maintained in minimum essential medium (MEM) supplemented with 10% fetal bovine serum, 100 units/mL penicillin G, […] and selective antibiotics at 37° C. with 5% CO2 in a humidified incubator. Fetal bovine serum was provided by Gemini Bio-Products (Woodland, Calif.). Tissue culture medium and antibiotics were obtained from Invitrogen Corporation (Carlsbad, Calif.), unless otherwise stated.
(§6) Briefly, cultured cells at >80% confluence were removed from their flasks (80 cm^2) with a disposable cell scraper and placed in 10 mL of 50 mM Tris.HCl buffer (pH 7.4, 4° C.). The cell suspension was centrifuged at 10,000×g for 5 min and the pellet was collected. The cell pellet was then homogenized in 10 mL buffer with a polytron homogenizer and centrifuged at 36,000 g for 10 min at 4° C. The membrane pellet was resuspended in fresh buffer, and aliquots of the membrane preparation were used for binding assays. […] Bound and free ligands were separated by vacuum filtration through Whatman GF/C filters treated with 0.5% polyethylenimine. The filter-retained radioactivity was measured by liquid scintillation counting. Specific binding was defined as the difference between total binding and nonspecific binding. Data from competition binding assays were analyzed using Prism 5 (GraphPad Software, San Diego, Calif.).
(§7) Pharmacological Properties. We measured the in vitro binding affinities of the ligands for defined receptor subtypes (α2β2, α2β4, α3β2, α3β4, α4β2, α4β4, α6β2, α6β4, and α7) expressed in stably transfected cell lines. […] Rat forebrain homogenates were included to allow comparison between the heterologous and native α4β2 and α7 nAChRs. See Table 1 for binding affinity values (Ki) of the ligands at the three major nAChR subtypes (α3β4. α4β2 and α7).

Experiment [5] concerns the target rat α3β4 nAChRs (Rattus norvegicus (Rat), UniProt P04757+P12392). Briefly: 86Rb+ efflux assay (activation and desensitization), α3β4. Type of experiment: cell-based. On the procedure: (§8) In Vitro Effects on nAChR Function. […] Their agonist activities were assessed by measuring stimulated ^86Rb^+ efflux from stably transfected cells, either expressing human α4β2 nAChRs or rat α3β4 receptors.
as §5
(§9) ^86Rb^+ Efflux Assay. Functional properties of compounds at nAChRs expressed in the transfected cells were measured using ^86Rb^+ efflux assays as described previously. In brief, cells expressing human α4β2 or rat α3β4 nAChRs were plated into 24-well plates coated with poly-D-lysine. The plated cells were grown at 37° C. for 18 to 24 hour to reach 85-95% confluence. The cells were then incubated in growth medium (0.5 mL/well) containing ^86Rb^+ (2 μCi/mL) for 4 hour at 37° C. The loading mixture was then aspirated, and the cells were washed four times with 1 mL buffer (15 mM HEPES, 140 mM NaCl, 2 mM KCl, 1 mM MgSO4, 1.8 mM CaCl2, 11 mM Glucose, pH 7.4). One mL of buffer with or without compounds to be tested was then added to each well. After incubation for 2 min, the assay buffer was collected for measurements of ^86Rb^+ released from the cells. Cells were then lysed by adding 1 mL of 100 mM NaOH to each well, and the lysate was collected for determination of the amount of ^86Rb^+ that was in the cells at the end of the efflux assay. Radioactivity of assay samples and lysates was measured by liquid scintillation counting. Total loading (cpm) was calculated as the sum of the assay sample and the lysate of each well. The amount of ^86Rb^+ efflux was expressed as a percentage of ^86Rb^+ loaded. […] For obtaining EC50 and Emax values, stimulation curves were constructed in which 8 different concentrations of a ligand were included in the assay. […] EC50, Emax and IC50(10′) values were determined by nonlinear least-squares regression analyses (GraphPad, San Diego, Calif.).
(§10) The functional properties of the ligands were determined by ^86Rb^+ efflux assays in cells expressing α3β4 and α4β2 nAChR subtypes. The functional activity of each ligand was measured for its agonism, antagonism and desensitization ability. Agonist activity for each of the ligands was tested at eight different concentrations. […] The full concentration-effect curves generated potency (EC50) and efficacy (Emax) of each ligand. […] We tested each ligand for antagonist activity at eight concentrations. The potency (IC50(0′)) of each ligand as an antagonist was derived from the full concentration-effect curves.

Experiment [6] concerns the target α2β2 nAChR (Rattus norvegicus (Rat), UniProt P12389+P12390). Put plainly: [3H]-epibatidine competition binding, α2β2. The conditions noted are these: Table 1; mean of 3 to 5 measurements. The protocol: as §1, §2, §3, §4
Experiment [7] addresses α7 nAChR (Rattus norvegicus (Rat), UniProt Q05941). In kind it is binding. The protocol: as §1, §5, §6, §7
The target in experiment [8] is human α4β2 nAChRs (Homo sapiens (Human), UniProt P17787+P43681). Briefly: 86Rb+ efflux assay (activation and desensitization), α4β2. Type of experiment: cell-based. The conditions noted are these: for Emax α4β2 nAChRs: agonist efficacy normalized to Emax of nicotine, ND = no significant stimulated efflux detected; for pIC50: desensitization. The protocol:
as §8, §5, §9, §10

Experiment [9] addresses α4β2 nAChR (Rattus norvegicus (Rat), UniProt P09483+P12390). Put plainly: biochemical. Type of experiment: binding. The conditions noted are these: for pKi: read-out: Ki α4β2. On the procedure: as §1, §5, §6, §7
Where [10] appears, read: Table 1, mean of 3 to 5 measurements.
The mark [11] stands for this setting: read-out: IC50(10′) α3β4 nAChRs.
The mark [12] stands for this setting: 10 min pre-treatment, Table 3 (Example 4), read-out: IC50(10′) α4β2.
Setting [13] is: 10 min pre-incubation before 100 μM nicotine, Table 2, read-out: IC50(10′) α4β2 nAChRs.

pIC50, pKi: −log10 of the molar value. Like-named read-outs stand apart in the source and are kept apart here. Where only a bound is given, the exact number is not on record here.

`Cc1ncc(C#CCCCCF)cc1OC[C@@H]1CCN1` [(S)-22, (S)-3-(azetidin-2-ylmethoxy)-5-(6-fluorohex-1-ynyl)-2-methylpyridine]: the pKi in experiment [1] is 4.62; in experiment [2] it was 6.64; in [3], 5.52; in experiment [4] (setting [10]), 3.82; in [4] (Table 3 (Example 4)), 3.89; in experiment [6], 8.06. Also, the pKi in experiment [7] (setting [10]) and in experiment [7] (Table 3 (Example 4)) was 3.82 in each case. In addition, the pIC50 in experiment [5] (read-out: IC50(10′) α3β4) was 4.89; in [5] (setting [11]), under 5.00; in [8] (setting [12]), 6.85; in [8] (setting [13]), 6.89. In addition, the “Emax α4β2 nAChRs” value in [8] is on record as “didn't show detectable agonist activity”.

`Cc1ncc(C#CCCCCCl)cc1OC[C@@H]1CCN1` [(S)-21, (S)-3-(azetidin-2-ylmethoxy)-5-(6-chlorohex-1-ynyl)-2-methylpyridine]: the pKi in experiment [1] was 4.54; in experiment [2], 6.52; in experiment [3], 5.43; in [4] (setting [10]), 4.04; in experiment [4] (Table 3 (Example 4)) it was 4.07; in experiment [6], 8.07. For the same compound, the pKi was 4.17 in [7] (setting [10]), 4.17 in [7] (Table 3 (Example 4)), 8.28 in experiment [9] (setting [10]) and 8.33 in [9] (Table 3 (Example 4)). Further, the pIC50 in [5] (read-out: IC50(10′) α3β4) was 4.96; in experiment [5] (setting [11]), under 5.00; in [8] (setting [12]), 6.57; in [8] (setting [13]), 6.59. Further, in experiment [8], the “Emax α4β2 nAChRs” value was “didn't show detectable agonist activity”. For the same compound, in experiment [9] (selectivity for α4β2 over α3β4), the “Ki Ratio α3β4/α4β2” value is on record as 17,000. Moreover, the “Ki Ratio α7/α4β2” value in experiment [9] (selectivity for α4β2 over α7) is 13,000.
